Key:
[1] = test system: Trypanosoma brucei brucei; experiment: Antitrypanosomal activity against Trypanosoma brucei brucei BS427 after 48 hrs by alamar blue assay; type: functional, organism-based; conditions: BS427, 48 h
[2] = Growth inhibition of human HEK293 cells at 70 uM after 48 hrs by alamar blue assay relative to control; type: cell-based; conditions: read-out: GI
[3] = Growth inhibition of human HEK293 cells at 50 uM after 48 hrs by alamar blue assay relative to control; type: cell-based; conditions: read-out: GI

IC50 [1]	SMILES	inhibition at 48 h, 70 µM [2]	inhibition at 48 h, 50 µM [3]
3.4 µM	CO/C(=C\c1ccccc1)C(=O)N[C@@H](Cc1c[nH]c2cc(Br)ccc12)C(=O)O [IOTROCHAMIDES B]	100%	–
4.7 µM	CO/C(=C\c1ccccc1)C(=O)N[C@@H](Cc1ccc(O)cc1)C(=O)O [IOTROCHAMIDES A]	–	85%
